Molecular target: phosphoinositide-specific phospholipase C (Bos taurus)
Assay: In vitro inhibitory activity against bovine Phosphoinositide specific phospholipase C (PI-PLC)

IC50: 8 µM
SMILES: CCCCCCCCCCCCCCCC(=O)OC[C@H](COP(=O)(O)OC1C(O)C(O)C(O)C(F)C1O)OC(=O)CCCCCCCCCCCCCCC (stereo partly drawn) [Hexadecanoic acid (R)-2-[(3-fluoro-2,4,5,6-tetrahydroxy-cyclohexyloxy)-hydroxy-phosphoryloxy]-1-hexadecanoyloxymethyl-ethyl ester]

Source: BindingDB's records for doi:10.1021/jm980254j (Georgetown University Medical Center, 1998)
